Test results from US20170281507A1, “Peptides and Their Use in the Treatment of Skin” (AVON PRODUCTS, INC., priority 2014, published 2017).
Peptide text beside a SMILES is read from it.

Tested on: Human dermal fibroblast cells
Assay: Hyaluronic acid (HA) production in human dermal fibroblast cells, HA ELISA of the media
Format: cell-based
Settings: percent change of HA production relative to vehicle control, peptide concentration 0.001%, 48h treatment in DMEM media without FBS, secreted HA in media
Method: Human dermal fibroblast cells were grown in a 96 well plate in DMEM media (available from Corning, N.Y.) supplemented with 10% Fetal Bovine Serum (FBS) and L-glutamine (0.07×10^5 cells/plate). After reaching about 75% confluence, cells were transferred into DMEM media without FBS and incubated for 4-6 hours. Next, cells were treated with peptide of Formula I at 0.00001%, 0.0001%, 0.001% final concentration in DMEM media without FBS for 48h. After treatment the media were collected, and cell viability was measured using MTT. Amount of secreted Hyaluronic Acid (HA) was tested in the media using HA Elisa kit (available from Corgenix, Broomfield, Colo.).
Results are summarized in Table 1 below as percent change of HA production relative to vehicle control: […]

Compound: CC(N)C(=O)NC(CCC(=O)O)C(=O)NC(CS)C(=O)NC(CCCCN)C(=O)O (stereo not drawn) [AECK (SEQ ID NO: 1), Ala-Glu-Cys-Lys] (H-AECK-OH; configuration not given here)
- Increase in HA Production: +90-150%
- Increase in HA Production (listed as peptide of Formula I): 90-150%
